Laboratory results as given in patent US10428083B2, “Heterocyclylmethyl-thienouracile as antagonists of the adenosine-A2B-receptor” (BAYER PHARMA AKTIENGESELLSCHAFT, priority 2015, dated 2019).

Molecular target: human adenosine A2b receptor (Homo sapiens (Human), UniProt P29275)
Experiment: Cellular in vitro reporter gene test for A2b receptor activity (CHO-K1, CRE-luciferase, NECA stimulation)
Assay type: cell-based
Conditions: not given
In short: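 CHO-K1 cells with CRE-driven luciferase; antagonists co-incubated with NECA at its EC50, determined in a pre-experiment on each test day. Luciferase read by luminescence 3 h after NECA addition.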

Chain of human adenosine A2b receptor (P29275 whole entry): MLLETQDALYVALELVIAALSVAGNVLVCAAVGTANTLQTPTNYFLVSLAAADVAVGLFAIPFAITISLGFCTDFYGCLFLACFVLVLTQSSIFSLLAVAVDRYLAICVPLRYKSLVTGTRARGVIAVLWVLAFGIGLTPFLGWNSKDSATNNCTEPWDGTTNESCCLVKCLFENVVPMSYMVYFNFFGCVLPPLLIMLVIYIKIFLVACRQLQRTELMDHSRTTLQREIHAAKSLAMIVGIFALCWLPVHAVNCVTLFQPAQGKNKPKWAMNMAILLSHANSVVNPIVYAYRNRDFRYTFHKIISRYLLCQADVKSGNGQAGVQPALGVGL

| IC50 [nM] | SMILES |
| --- | --- |
| 150 | COCCn1c(=O)n(C(C)C(F)(F)F)c(=O)c2c(C)c(Cn3nc[nH]c3=O)sc21 (racemic) [Example 438, 1-(2-Methoxyethyl)-5-methyl-6-[(5-oxo-4,5-dihydro-1H-1,2,4-triazol-1-yl)methyl]-3-(1,1,1-trifluoropropan-2-yl)thieno[2,3-d]pyrimidine-2,4(1H,3H)-dione] |

Same assay, conditions: recombinant CHO-K1 cell line, CRE-luciferase reporter, antagonism of EC50 concentration of NECA; in some cases means of several determinations, rounded to two significant figures; read-out: A2b receptor IC50

| SMILES | IC50 [nM] |
| --- | --- |
| Cc1c(CN2CCNC2=O)sc2c1c(=O)n(CC(C)C)c(=O)n2CC1CCO1 (single isomer, unassigned) [Example 196, 3-Isobutyl-5-methyl-1-(oxetan-2-ylmethyl)-6-[(2-oxoimidazolidin-1-yl)methyl]thieno[2,3-d]pyrimidine-2,4(1H,3H)-dione] | 6.5 |
| Cc1c(CN2CCNC2=O)sc2c1c(=O)n(CC(F)(F)F)c(=O)n2CCC(F)(F)F [Example 204, 5-Methyl-6-[(2-oxoimidazolidin-1-yl)methyl]-3-(2,2,2-trifluoroethyl)-1-(3,3,3-trifluoropropyl)thieno[2,3-d]pyrimidine-2,4(1H,3H)-dione] | 1.1 |
| CCSCCn1c(=O)n(CC)c(=O)c2c(C)c(CN3CCNC3=O)sc21 [Example 309, 3-Ethyl-1-[2-(ethylsulphanyl)ethyl]-5-methyl-6-[(2-oxoimidazolidin-1-yl)methyl]thieno[2,3-d]pyrimidine-2,4(1H,3H)-dione] | 36 |
| CCn1c(=O)c2c(C)c(CN3CCNC3=O)sc2n(CCOC2CCCC2)c1=O [Example 308, 1-[2-(Cyclopentyloxy)ethyl]-3-ethyl-5-methyl-6-[(2-oxoimidazolidin-1-yl)methyl]thieno[2,3-d]pyrimidine-2,4(1H,3H)-dione] | 140 |
| CCn1c(=O)c2c(C(F)F)c(CN3CCNC3=S)sc2n(CCC(F)(F)F)c1=O [Example 44, 5-(Difluoromethyl)-3-ethyl-6-[(2-thioxoimidazolidin-1-yl)methyl]-1-(3,3,3-trifluoropropyl)thieno[2,3-d]pyrimidine-2,4(1H,3H)-dione] | 5.2 |
| COCCn1c(=O)n(CCc2ccccc2)c(=O)c2c(C)c(CN3CCCS3(=O)=O)sc21 [Example 15, 6-[(1,1-Dioxido-1,2-thiazolidin-2-yl)methyl]-1-(2-methoxyethyl)-5-methyl-3-(2-phenylethyl)thieno[2,3-d]pyrimidine-2,4(1H,3H)-dione] | 3.1 |
| CCn1c(=O)c2c(C)c(CN3CCCS3(=O)=O)sc2n(CCOC)c1=O [Example 17, 6-[(1,1-Dioxido-1,2-thiazolidin-2-yl)methyl]-3-ethyl-1-(2-methoxyethyl)-5-methylthieno[2,3-d]pyrimidine-2,4(1H,3H)-dione] | 16 |
| Cc1c(CN2CCNC(=O)C2=O)sc2c1c(=O)n(C(C)C)c(=O)n2CC1CCCO1 (single isomer, unassigned) [Example 481, 6-[(2,3-Dioxopiperazin-1-yl)methyl]-3-isopropyl-5-methyl-1-(tetrahydrofuran-2-ylmethyl)thieno[2,3-d]pyrimidine-2,4(1H,3H)-dione] | 140 |

Other lines, results leading:

| IC50 [nM] | SMILES |
| --- | --- |
| 13 | Cc1c(CN2CCNC2=O)sc2c1c(=O)n(C(C)C)c(=O)n2CC1CCCO1 (racemic) [Example 186, 3-Isopropyl-5-methyl-6-[(2-oxoimidazolidin-1-yl)methyl]-1-(tetrahydrofuran-2-ylmethyl)thieno[2,3-d]pyrimidine-2,4(1H,3H)-dione] |
| 1.5 | Cc1c(CN2CCNC2=S)sc2c1c(=O)n(CC(C)C)c(=O)n2CCCF [Example 144, 1-(3-Fluoropropyl)-3-isobutyl-5-methyl-6-[(2-thioxoimidazolidin-1-yl)methyl]thieno[2,3-d]pyrimidine-2,4(1H,3H)-dione] |
| 18 | COCCn1c(=O)n(CCF)c(=O)c2c(C)c(CN3CCNC3=O)sc21 [Example 97, 3-(2-Fluoroethyl)-1-(2-methoxyethyl)-5-methyl-6-[(2-oxoimidazolidin-1-yl)methyl]thieno[2,3-d]pyrimidine-2,4(1H,3H)-dione] |
